Patent US7199136B2, “1,4-dihydro-1,4-diphenylpyridine derivatives” (Bayer HealthCare AG, priority 2001, dated 2007)

Target: T1, human neutrophil elastase (HNE) (Homo sapiens, UniProt P08246)
T1 construct: purchased SERVA Electrophoresis GmbH, Heidelberg, Germany #20927.01
T1 sequence (P08246 30-267): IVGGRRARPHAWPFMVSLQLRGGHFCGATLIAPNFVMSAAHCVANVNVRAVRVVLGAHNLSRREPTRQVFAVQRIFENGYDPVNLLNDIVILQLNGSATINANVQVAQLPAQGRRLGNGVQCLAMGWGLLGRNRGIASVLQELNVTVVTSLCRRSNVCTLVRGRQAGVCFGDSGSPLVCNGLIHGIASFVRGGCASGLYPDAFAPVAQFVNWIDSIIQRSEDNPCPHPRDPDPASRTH
Assay: In vitro inhibition of HNE using a fluorogenic peptide substrate (MeOSuc-Ala-Ala-Pro-Val-AMC), 384 MTP format
Format: biochemical
Conditions: 37° C.
Protocol: I. In Vitro Assays of Human Neutrophil Elastase (HNE)
The test solution is prepared by mixing 10 μl of test compound dilution, 20 μl of HNE enzyme dilution (final concentration 8–0.4 μU/ml, routinely 2.1 μU/ml) and 20 μl of substrate dilution (final concentration 1 mM–1 μM, routinely 20 μM), respectively. The solution is incubated for 0–2 hrs at 37° C. (routinely one hour). The fluorescence of the liberated AMC due to the enzymatic reaction is measured at 37° C. (TECAN spectra fluor plus plate reader). […] IC50 values are determined by RFU-versus-[I] plots. Km and Km(app.) values are determined by Lineweaver-Burk plots and converted to Ki values by Dixon plots.

Molecule	IC50 [nM]
CCOC(=O)C1=CN(c2cccc(C(F)(F)F)c2)C(C)=C(C(C)=O)C1c1ccc(C#N)cc1 (racemic) [Example 8, (±)-Ethyl 5-acetyl-4-(4-cyanophenyl)-6-methyl-1-[3-(trifluoromethyl)phenyl]-1,4-dihydro-3-pyridinecarboxylate]	330
CCOC(=O)C1=C(C)N(c2cccc(C(F)(F)F)c2)C(C)=C(C(C)=O)C1c1ccc(C#N)cc1 (racemic) [Example 10, (±)-Ethyl 5-acetyl-4-(4-cyanophenyl)-2,6-dimethyl-1-[3-(trifluoromethyl)phenyl]-1,4-dihydro-3-pyridinecarboxylate]	230
CCOC(=O)C1=C(N)N(c2cccc(C)c2)C(C)=C(C(C)=O)C1c1ccc(C#N)cc1 (stereo not shown) [Example 12, Ethyl 5-acetyl-2-amino-4-(4-cyanophenyl)-6-methyl-1-[3-methylphenyl]-1,4-di-hydro-3-pyridinecarboxylate]	180
CC(=O)C1=C(C)N(c2cccc(C(F)(F)F)c2)C(N)=C(C(N)=O)C1c1ccc(C#N)cc1 (stereo not shown) [Example 13, 5-Acetyl-2-amino-4-(4-cyanophenyl)-6-methyl-1-[3-(trifluoromethyl)phenyl]-1,4-dihydro-3-pyridinecarboxamide]	30
CC(=O)C1=C(C)N(c2cccc(C(F)(F)F)c2)C(=N)C(C(=O)N(C)C)C1c1ccc(C#N)cc1 (stereo not shown) [Example 14, 5-Acetyl-4-(4-cyanophenyl)-2-imino-N,N,6-trimethyl-1-[3-(trifluoromethyl)phenyl]-1,2,3,4-tetrahydro-3-pyridinecarboxamide]	20
CC(=O)C1=C(C)N(c2cccc(C(F)(F)F)c2)C(N)=C(C#N)C1c1ccc(C#N)cc1 (stereo not shown) [Example 15, 5-Acetyl-2-amino-4-(4-cyanophenyl)-6-methyl-1-[3-(trifluoromethyl)phenyl]-1,4-dihydro-3-pyridinecarbonitrile]	120
CCOC(=O)C1=C(N)N(c2cccc(CN(CC)CC)c2)C(C)=C(C(C)=O)C1c1ccc(C#N)cc1 (stereo not shown) [Example 17, Ethyl 5-acetyl-2-amino-4-(4-cyanophenyl)-1-{3-[(diethylamino)methyl]phenyl}-6-methyl-1,4-dihydro-3-pyridinecarboxylate]	9000
CCOC(=O)C1=C(N)N(c2cc(OC)cc(C(F)(F)F)c2)C(C)=C(C(C)=O)C1c1ccc(C#N)cc1 (stereo not shown) [Example 18, Ethyl 5-acetyl-2-amino-4-(4-cyanophenyl)-1-[3-methoxy-5-(trifluoromethyl)phenyl]-6-methyl-1,4-dihydro-3-pyridinecarboxylate]	30

Test system: human polymorphonuclear cells (PMNs)
Assay: In vitro PMN elastolysis assay (tritiated elastin)
Format: cell-based
Conditions: at 1.2 μM; n=3 different donors at 3.6×10^5 cells per well; 4 hours at 37° C.
Protocol: II. In Vitro PMN Elastolysis Assay
This assay is used to determine the elastolytic potential of human polymorphonuclear cells (PMNs) and assess the proportion of degradation due to neutrophil elastase [cf. Z. W. She et al., Am. J. Respir. Cell. Mol. Biol. 9, 386–392 (1993)].
Tritiated elastin, in suspension, is coated on to a 96 well plate at 10 μg per well. Test and reference [ZD-0892 (J. Med. Chem. 40, 1876–1885, 3173–3181 (1997), WO 95/21855) and α1 protease inhibitor (α1PI)] compounds are added to the wells at the appropriate concentrations. Human PMNs are separated from peripheral venous blood of healthy donors and resuspended in culture media. […] Porcine pancreatic elastase (1.3 μM is used as a positive control for the assay, and α1PI (1.2 μM) is used as the positive inhibitor of neutrophil elastase. The cellular control is PMNs without compound at each appropriate cell density. The cells plus compounds are incubated in a humidified incubator at 37° C. for 4 hours. The plates are centrifuged to allow the harvest of cell supernatant only. The supernatant is transferred in 75 μl volumes to corresponding wells of a 96 well Lumaplate™ (solid scintillant containing plates). The plates are dried until no liquid is visible in the wells and read in a beta counter for 3 minutes per well. […]

Molecule	inhibition of 3H-elastin elastolysis (mean±s.e.m.) [%]
α1PI: α1 protease inhibitor, used as the positive inhibitor of neutrophil elastase	83.46±3.97

Same assay, conditions: n=2 different donors at 3.6×10^5 cells per well; read-out: IC50 (mean±s.e.m.) of elastolysis inhibition

Molecule	IC50 [nM]
COc1ccc(C(=O)N[C@H](C(=O)N2CCC[C@H]2C(=O)N[C@H](C(=O)C(F)(F)F)C(C)C)C(C)C)cc1 [ZD-0892, reference compound]	45.5 ± 7.75
